This note sets out measurements from PMC7568786, “Tilianin Protects against Ischemia/Reperfusion-Induced Myocardial Injury through the Inhibition of the Ca^2+/Calmodulin-Dependent Protein Kinase II-Dependent Apoptotic and Inflammatory Signaling Pathways” (BioMed Research International, 2020).

Usually pIC50 stands for the negative decadic logarithm of the IC50, by convention in mol/L. Read a low pIC50 as a large IC50.

pIC50: −log10 of the molar value. Where only a bound is given, the exact number is not on record here.

This test deals with T1, CaMKIIδ (Homo sapiens, UniProt Q13557).
T1 construct: gene CAMK2D; recombinant CaMKIIδ (Invitrogen)
Description: in vitro kinase assay with autocamtide-2 peptide, ADP quantification. In kind it is biochemical.

T1 sequence (Q13557 2-499): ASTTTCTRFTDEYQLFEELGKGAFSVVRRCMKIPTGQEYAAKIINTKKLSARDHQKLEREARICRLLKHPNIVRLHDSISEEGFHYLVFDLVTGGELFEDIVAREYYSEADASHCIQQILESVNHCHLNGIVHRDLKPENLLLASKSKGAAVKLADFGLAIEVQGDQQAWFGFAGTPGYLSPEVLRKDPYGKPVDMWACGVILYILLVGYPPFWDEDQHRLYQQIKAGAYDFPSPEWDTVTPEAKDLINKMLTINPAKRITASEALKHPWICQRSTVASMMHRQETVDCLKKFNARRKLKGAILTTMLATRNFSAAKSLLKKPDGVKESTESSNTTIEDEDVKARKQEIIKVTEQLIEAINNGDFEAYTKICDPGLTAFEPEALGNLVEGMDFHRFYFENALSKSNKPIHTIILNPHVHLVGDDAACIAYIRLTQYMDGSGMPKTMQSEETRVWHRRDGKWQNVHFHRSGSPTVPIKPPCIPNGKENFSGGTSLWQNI

`COc1ccc(S(=O)(=O)N(CCO)c2ccccc2CN(C)C/C=C/c2ccc(Cl)cc2)cc1` [KN93] showed a pIC50 of 5.20. On to `COc1ccc(-c2cc(=O)c3c(O)cc(O[C@@H]4O[C@H](CO)[C@@H](O)[C@H](O)[C@H]4O)cc3o2)cc1` [tilianin], for which the pIC50 was < 4.00.
